In ChEMBL document CHEMBL1201862, “PubChem BioAssay data set” (2004):
Calls of active or inactive are those of the source.

Assays:
[1] = molecular target: Troponin, cardiac muscle (Homo sapiens, UniProt P19429+P45379+P63316); assay: Fluorescence-based biochemical high throughput dose response assay for activators of the calcium sensitivity of cardiac Regulated Thin Filaments (RTF). [Related pubchem assays (depositor defined):AID493008, AID493018, AID504382, AID504383]; format: protein-complex assay
[2] = tested on: HEK293; assay: cells; format: functional, cell-based; settings: Homo sapiens
[3] = tested on: HEK293; assay: cells; format: functional, cell-based; settings: Homo sapiens; remark: listed apart in the source
[4] = tested on: HEK293; assay: NOD1 signaling inhibitors, primary screen, cell-based, luminescence, uHTS (AID 1578); format: functional; settings: Homo sapiens
[5] = HepG2 cell cytotoxicity, dose response, cytotoxicity control for non-replicating M. tuberculosis project (AID 489018); format: functional; settings: Mycobacterium tuberculosis
[6] = Vero E6 cell cytotoxicity, dose response, cytotoxicity control for non-replicating M. tuberculosis project, secondary assay (AID 492998); format: functional, VeroE6; settings: Vero C1008
[7] = THP-1 cell cytotoxicity, dose response, cytotoxicity control for non-replicating M. tuberculosis project (AID 489025); format: functional
[8] = tested on: Streptococcus sp. 'group A'; assay: growth inhibition of control SK(-) GAS strain, dose response, counter-screen for streptokinase expression inhibitor project, luminescence, kanamycin, BacTiterGlo, confirmation (AID 1900); format: functional, organism-based
[9] = tested on: Streptococcus; assay: Group A Streptococcus viability loss, dose response, counter-screen for streptokinase expression inhibitor project, luminescence, BacTiterGlo (AID 1915); format: functional, organism-based;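 further: potency for reduction of bacterial viability or growth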
[10] = molecular target: T1, Streptokinase A (Streptococcus pyogenes serotype M1, UniProt P10520); assay: S. pyogenes streptokinase expression inhibitors, potency, dose response, plasminogen activation absorbance, OD405 (AID 1914); format: functional, Streptococcus pyogenes M1 GAS;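 further: secreted streptokinase activity via plasminogen activation per viability signal from cell pellet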
T1 sequence (P10520 whole entry): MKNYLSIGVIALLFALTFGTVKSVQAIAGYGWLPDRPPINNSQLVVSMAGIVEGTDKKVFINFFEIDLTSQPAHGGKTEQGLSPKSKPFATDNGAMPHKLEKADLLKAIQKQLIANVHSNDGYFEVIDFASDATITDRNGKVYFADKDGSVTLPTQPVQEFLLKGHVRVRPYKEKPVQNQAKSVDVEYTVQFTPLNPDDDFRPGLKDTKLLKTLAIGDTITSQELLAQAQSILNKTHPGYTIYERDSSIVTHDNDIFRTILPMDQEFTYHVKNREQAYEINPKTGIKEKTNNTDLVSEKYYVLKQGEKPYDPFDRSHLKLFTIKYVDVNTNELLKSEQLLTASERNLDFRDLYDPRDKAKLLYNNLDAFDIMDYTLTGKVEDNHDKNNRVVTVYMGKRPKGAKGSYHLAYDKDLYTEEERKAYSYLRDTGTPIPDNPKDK

[11] = molecular target: E3 ubiquitin-protein ligase Mdm2/Protein Mdm4 (Homo sapiens, UniProt O15151+Q00987); assay: Mdm2-MdmX interaction inhibitors, dose response, luminescence detection (AID 504593); format: functional
[12] = molecular target: DNA dC->dU-editing enzyme APOBEC-3G (Homo sapiens, UniProt Q9HC16); assay: Dose Response confirmation of small molecule APOBEC3G DNA Deaminase Inhibitors via a fluorescence-based single-stranded DNA deaminase assay. [Related pubchem assays (depositor defined):AID493012, AID493028]; format: functional
[13] = molecular target: Beta-lactamase (Salmonella choleraesuis (strain SC-B67), UniProt Q5J463); assay: Epi-absorbance-based counterscreen for selective VIM-2 inhibitors: dose response biochemical high throughput screening assay to identify inhibitors of TEM-1 serine-beta-lactamase.
[14] = molecular target: T2, Beta-lactamase (Pseudomonas aeruginosa, UniProt Q79MP6); assay: IMP-1 metallo-beta-lactamase inhibitors, dose response, selectivity assay for VIM-2 inhibitor project, biochemical, epi-absorbance (AID 1920)
[15] = molecular target: DNA dC->dU-editing enzyme APOBEC-3A (Homo sapiens, UniProt P31941); assay: APOBEC3A DNA deaminase inhibitors, dose response, biochemical (AID 504722); format: functional
[16] = molecular target: T2, Beta-lactamase; assay: […] counterscreen for selective VIM-2 inhibitors: dose response biochemical high throughput screening assay to identify inhibitors of IMP-1 metallo-beta-lactamase.

T2 sequence (Q79MP6 whole entry): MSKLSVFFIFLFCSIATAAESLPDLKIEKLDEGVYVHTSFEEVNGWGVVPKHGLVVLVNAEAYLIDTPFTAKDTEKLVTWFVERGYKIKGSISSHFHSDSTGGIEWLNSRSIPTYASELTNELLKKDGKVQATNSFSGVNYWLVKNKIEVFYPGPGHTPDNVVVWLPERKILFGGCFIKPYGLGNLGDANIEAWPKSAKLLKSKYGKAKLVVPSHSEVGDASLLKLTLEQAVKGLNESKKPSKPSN
DNA dC->dU-editing enzyme APOBEC-3G, sequence (Q9HC16 whole entry): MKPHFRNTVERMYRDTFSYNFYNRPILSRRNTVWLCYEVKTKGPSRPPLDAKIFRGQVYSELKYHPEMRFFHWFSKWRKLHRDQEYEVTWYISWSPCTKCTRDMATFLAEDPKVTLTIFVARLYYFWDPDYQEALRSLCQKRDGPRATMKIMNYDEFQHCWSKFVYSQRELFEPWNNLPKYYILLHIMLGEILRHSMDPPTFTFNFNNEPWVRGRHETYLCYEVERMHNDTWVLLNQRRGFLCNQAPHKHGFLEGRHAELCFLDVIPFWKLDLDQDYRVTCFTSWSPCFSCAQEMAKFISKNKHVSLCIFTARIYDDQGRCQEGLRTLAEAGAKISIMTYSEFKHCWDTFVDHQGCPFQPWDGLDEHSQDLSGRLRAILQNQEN
Beta-lactamase (Salmonella choleraesuis (strain SC-B67), UniProt Q5J463), sequence (Q5J463 whole entry): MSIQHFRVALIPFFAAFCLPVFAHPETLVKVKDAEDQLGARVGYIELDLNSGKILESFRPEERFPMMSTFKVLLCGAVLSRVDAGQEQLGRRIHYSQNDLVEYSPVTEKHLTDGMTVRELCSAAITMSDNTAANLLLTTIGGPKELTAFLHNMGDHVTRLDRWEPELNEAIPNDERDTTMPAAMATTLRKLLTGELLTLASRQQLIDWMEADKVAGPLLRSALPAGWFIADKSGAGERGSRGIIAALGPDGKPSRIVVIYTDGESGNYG
DNA dC->dU-editing enzyme APOBEC-3A, sequence (P31941 whole entry): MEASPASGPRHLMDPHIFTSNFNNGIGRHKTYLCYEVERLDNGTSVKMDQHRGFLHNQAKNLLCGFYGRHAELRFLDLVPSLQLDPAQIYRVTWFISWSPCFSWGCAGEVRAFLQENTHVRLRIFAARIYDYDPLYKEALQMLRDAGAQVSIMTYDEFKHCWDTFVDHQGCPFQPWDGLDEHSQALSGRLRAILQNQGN
E3 ubiquitin-protein ligase Mdm2/Protein Mdm4, sequence (Q00987 whole entry): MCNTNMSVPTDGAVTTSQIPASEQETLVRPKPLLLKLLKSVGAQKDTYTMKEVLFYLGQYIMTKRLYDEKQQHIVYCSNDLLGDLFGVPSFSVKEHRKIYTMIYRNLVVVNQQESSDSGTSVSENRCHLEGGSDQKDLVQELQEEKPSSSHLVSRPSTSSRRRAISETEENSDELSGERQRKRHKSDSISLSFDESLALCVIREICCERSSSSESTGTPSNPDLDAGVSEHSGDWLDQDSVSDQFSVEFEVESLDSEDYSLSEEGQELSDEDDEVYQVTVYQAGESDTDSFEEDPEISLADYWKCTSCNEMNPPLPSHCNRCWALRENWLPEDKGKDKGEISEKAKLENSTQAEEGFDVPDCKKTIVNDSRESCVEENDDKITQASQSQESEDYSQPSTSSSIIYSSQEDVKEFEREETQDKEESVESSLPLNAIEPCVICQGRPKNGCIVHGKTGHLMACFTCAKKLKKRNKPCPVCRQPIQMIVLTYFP
E3 ubiquitin-protein ligase Mdm2/Protein Mdm4, sequence (O15151 whole entry): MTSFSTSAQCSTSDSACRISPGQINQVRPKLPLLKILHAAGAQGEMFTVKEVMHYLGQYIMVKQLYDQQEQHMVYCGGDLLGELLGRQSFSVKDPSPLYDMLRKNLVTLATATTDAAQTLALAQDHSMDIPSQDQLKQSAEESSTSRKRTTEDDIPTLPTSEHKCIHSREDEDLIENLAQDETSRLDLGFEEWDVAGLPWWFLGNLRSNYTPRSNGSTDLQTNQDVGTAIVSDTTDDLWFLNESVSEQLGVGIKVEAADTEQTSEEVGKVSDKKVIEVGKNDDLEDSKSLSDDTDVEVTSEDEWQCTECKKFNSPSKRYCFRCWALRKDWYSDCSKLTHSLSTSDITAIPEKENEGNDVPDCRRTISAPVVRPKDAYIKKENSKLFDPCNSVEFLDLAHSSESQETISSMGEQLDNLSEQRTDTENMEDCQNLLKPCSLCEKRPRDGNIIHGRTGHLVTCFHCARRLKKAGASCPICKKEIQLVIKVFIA

Question: For `CCC(/C=C1\Oc2ccc(OC)cc2N1C)=C\c1sc2ccccc2[n+]1CCCS(=O)(=O)[O-]`, which EC50 [1] is on record?
Answer: 0.853 µM (active)

Question: What does the source list for `CN(C)S(=O)(=O)Oc1ccc(C(=O)Nc2cccc(C(F)(F)F)c2)cc1`?
Answer: IC50 [2]: 12.1 µM (active); IC50 [3]: 6.71 µM (active); EC50 [4]: 10.9 µM (active); CC50 [5]: > 20 µM (active); CC50 [6]: > 20 µM (active); CC50 [7]: > 40 µM (active)

Question: With `C/C(=N\Nc1cc(C)nc(-c2ccccc2O)n1)c1ccccc1O` as the compound, how does the EC50 [8] read?
Answer: 4.57 µM (active)

Question: What about the EC50 [9] of the same compound?
Answer: > 150 µM (not active)

Question: What about the EC50 [10] of the same compound?
Answer: 14 µM (active)

Question: And the IC50 [11]?
Answer: 6.71 µM (active)

Question: Which IC50 [12] does the source give for `Sc1nnc(-c2cccs2)n1C1CCCCC1` here?
Answer: 4.59 µM (active)

Question: And the IC50 [13]?
Answer: > 59.6 µM (inactive)

Question: And the IC50 [14]?
Answer: > 59.6 µM (inactive)

Question: What about the IC50 [15] of the same compound?
Answer: > 100 µM (inactive)

Question: What about the IC50 [16] of the same compound?
Answer: > 59.6 µM (inactive)
